Measured values as given in patent US6878722B2, “Substituted cycloalkyl P1′ hepatitis C virus inhibitors” (Bristol-Myers Squibb Company, priority 2002, dated 2005).

How the values were obtained:
[1] = target: T1, HCV NS3/4A protease complex (BMS strain, genotype 1a) (Hepatitis C virus genotype 1a, UniProt P27958, C1454S); assay: Recombinant HCV NS3/4A protease complex FRET peptide assay, BMS strain; assay type: biochemical; conditions: IC50 range, NS3/4A BMS Strain
T1 construct: DNA encoding the recombinant HCV NS3/4A protease complex (amino acids 1027 to 1711) for these strains; inferred from the pET21b vector and Ni-NTA purification; made in house; host or cells: Escherichia coli BL21 (DE3), pET21b
From the text: The purpose of this in vitro assay was to measure the inhibition of HCV NS3 protease complexes, derived from the BMS, H77C or J416S strains, as described below, by compounds of the present invention.
Serum from an HCV-infected patient was obtained from Dr. T. Wright, San Francisco Hospital. An engineered full-length cDNA (compliment deoxyribonucleic acid) template of the HCV genome (BMS strain) was constructed from DNA fragments obtained by reverse transcription-PCR (RT-PCR) of serum RNA (ribonucleic acid) and using primers selected on the basis of homology between other genotype 1a strains. […] The infectious clones, H77C (1a genotype) and J4L6S (1b genotype) were obtained from R. Purcell (NIH) and the sequences are published in Genbank (AAB67036, see Yanagi,M., Purcell,R. H., Emerson,S. U. and Bukh,J. Proc. Natl. Acad. Sci. U.S.A. 94(16),8738-8743 (1997); AF054247, see Yanagi,M., St Claire,M., Shapiro,M., Emerson,S. U., Purcell,R. H. and Bukh,J, Virology 244 (1), 161-172. (1998)).
The BMS, H77C and J4L6S strains were used for production of recombinant NS3/4A protease complexes. DNA encoding the recombinant HCV NS3/4A protease complex (amino acids 1027 to 1711) for these strains were manipulated as described by P. Gallinari et al. (see Gallinari P, Paolini C, Brennan D, Nardi C, Steinkuhler C, De Francesco R. Biochemistry. 38(17):5620-32, (1999)). Briefly, a three-lysine solubilizing tail was added at the 3′-end of the NS4A coding region. The cysteine in the P1 position of the NS4A-NS4B cleavage site (amino acid 1711) was changed to a glycine to avoid the proteolytic cleavage of the lysine tag. Furthermore, a cysteine to serine mutation was introduced by PCR at amino acid position 1454 to prevent the autolytic cleavage in the NS3 helicase domain. The variant DNA fragment was cloned in the pET21b bacterial expression vector (Novagen) and the NS3/4A complex was expressed in Escherichia. coli strain BL21 (DE3) (Invitrogen) following the protocol described by P. Gallinari et al. (see Gallinari P, Brennan D, Nardi C, Brunetti M, Tomei L, Steinkuhler C, De Francesco R., J. Virol. 72(8):6758-69 (1998)) with modifications. Briefly, NS3/4A expression was induced with 0.5 mM Isopropyl β-D-1-thiogalactopyranoside (IPTG) for 22 hr at 20° C. […] The cells were resuspended in lysis buffer (10 mL/g) consisting of 25 mM N-(2-Hydroxyethyl)Piperazine-N′-(2-Ethane Sulfonic acid) (HEPES), pH 7.5, 20% glycerol, 500 mM Sodium Chloride (NaCl), 0.5% Triton-X100, 1 ug/ml lysozyme, 5 mM Magnesium Chloride (MgCl2), 1 ug/ml DnaseI, 5 mM β-Mercaptoethanol (βME), Protease inhibitor—Ethylenediamine Tetraacetic acid (EDTA) free (Roche), homogenized and incubated for 20 mins at 4° C. The homogenate was sonicated and clarified by ultra-centrifugation at 235000 g for 1 hr at 4° C. Imidazole was added to the supernatant to a final concentration of 15 mM and the pH adjusted to 8.0. The crude protein extract was loaded on a Nickel-Nitrilotriacetic acid (Ni-NTA) column pre-equilibrated with buffer B (25 mM HEPES, pH 8.0, 20% glycerol, 500 mM NaCl, 0.5% Triton-X100, 15 mM imidazole, 5 mM βME). The sample was loaded at a flow rate of 1 mL/min. The column was washed with 15 column volumes of buffer C (same as buffer B except with 0.2% Triton-X100). The protein was eluted with 5 column volumes of buffer D (same as buffer C except with 200 mM Imidazole).
NS3/4A protease complex-containing fractions were pooled and loaded on a desalting column Superdex-S200 pre-equilibrated with buffer D (25 mM HEPES, pH7.5, 20% glycerol, 300 mM NaCl, 0.2% Triton-X100, 10 mM βME).

[2] = system: HCV replicon in Huh7 cells; assay: HCV replicon cell-based assay (FRET); conditions: Hepatitis C virus, Huh-7; HCV replicon; read-out: EC50 range
From the text: An HCV replicon whole cell system was established as described by Lohmann V, Korner F, Koch J, Herian U, Theilmann L, Bartenschlager R., Science 285(5424):110-3 (1999). This system enabled us to evaluate the effects of our HCV Protease compounds on HCV RNA replication. Briefly, using the HCV strain 1B sequence described in the Lohmann paper (Assession number: AJ238799), an HCV cDNA was generated encoding the 5′ internal ribosome entry site (IRES), the neomycin resistance gene, the EMCV (encephalomyocarditis viurs)-IRES and the HCV nonstructural proteins, NS3-NS5B, and 3′ non-translated region (NTR). In vitro transcripts of the cDNA were transfected into the human hepatoma cell line, Huh7. […] Resulting cell lines were characterized for positive and negative strand RNA production and protein production over time.
Huh7 cells, constitutively expressing the HCV replicon, were grown in Dulbecco's Modified Eagle Media (DMEM) containing 10% Fetal calf serum (FCS) and 1 mg/ml G418 (Gibco-BRL). Cells were seeded the night before (1.5×10^4 cells/well) in 96-well tissue-culture sterile plates. Compound and no compound controls were prepared in DMEM containing 4% FCS, 1:100 Penicillin/Streptomysin, 1:100 L-glutamine and 5% DMSO in the dilution plate (0.5% DMSO final concentration in the assay). Compound/DMSO mixes were added to the cells and incubated for 4 days at 37° C. After 4 days, plates were rinsed thoroughly with Phosphate-Buffered Saline (PBS) (3 times 150 μl). The cells were lysed with 25 μl of a lysis assay reagent containing the FRET peptide (RET S1, as described for the in vitro enzyme assay). The lysis assay reagent was made from 5× cell Luciferase cell culture lysis reagent(Promega #E153A) diluted to 1× with distilled water, NaCl added to 150 mM final, the FRET peptide diluted to 10 μM final from a 2 mM stock in 100% DMSO. The plate was then placed into the Cytofluor 4000 instrument which had been set to 340 nm excitation/490 emission, automatic mode for 21 cycles and the plate read in a kinetic mode. EC50 determinations were carried out as described for the IC50 determinations.

T1 sequence (P27958 1658-1714, looked up, stated change not applied): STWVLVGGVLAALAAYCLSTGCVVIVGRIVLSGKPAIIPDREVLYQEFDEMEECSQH
T1 sequence (P27958 1027-1657, looked up, stated change not applied): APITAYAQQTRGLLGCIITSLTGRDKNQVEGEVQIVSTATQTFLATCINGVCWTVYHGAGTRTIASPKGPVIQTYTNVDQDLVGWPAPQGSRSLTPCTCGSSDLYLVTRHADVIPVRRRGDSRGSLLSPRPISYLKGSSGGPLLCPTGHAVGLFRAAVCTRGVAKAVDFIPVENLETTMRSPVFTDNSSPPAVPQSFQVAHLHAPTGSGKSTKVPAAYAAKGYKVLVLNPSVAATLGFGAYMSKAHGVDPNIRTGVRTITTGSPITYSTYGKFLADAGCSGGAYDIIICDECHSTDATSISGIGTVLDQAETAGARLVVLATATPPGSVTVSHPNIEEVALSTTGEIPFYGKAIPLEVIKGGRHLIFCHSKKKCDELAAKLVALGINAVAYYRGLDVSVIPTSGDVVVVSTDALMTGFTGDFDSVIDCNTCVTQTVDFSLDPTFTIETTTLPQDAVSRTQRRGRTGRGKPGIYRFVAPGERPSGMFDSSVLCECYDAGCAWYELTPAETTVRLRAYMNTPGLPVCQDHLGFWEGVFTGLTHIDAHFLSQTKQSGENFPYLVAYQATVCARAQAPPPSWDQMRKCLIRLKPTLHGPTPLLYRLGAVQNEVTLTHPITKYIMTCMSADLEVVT

| Compound | IC50 [1] [nM] | EC50 [2] [nM] |
| --- | --- | --- |
| CCCC1(S(=O)(=O)NC(=O)C2(NC(=O)[C@@H]3C[C@@H](Oc4cc(-c5ccccc5)nc5cc(OC)ccc45)CN3C(=O)[C@@H](NC(=O)OC(C)(C)C)C(C)(C)C)CC23CC3)CC1 (mixture of isomers) [Compound 200, (1-{4-(7-Methoxy-2-phenyl-quinolin-4-yloxy)-2-[1-(1-propyl-cyclopropane-sulfonylaminocarbonyl)-spiro[2.2]pent-1-ylcarbamoyl]-pyrrolidine-1-carbonyl}-2,2-dimethyl-propyl)-carbamic acid tert-butyl ester] | 50 to 500 | 500 to 5000 |
| COc1ccc2c(O[C@@H]3C[C@@H](C(=O)NC4(C(=O)NS(=O)(=O)C5(Cc6ccccc6)CC5)CC45CC5)N(C(=O)[C@@H](NC(=O)OC(C)(C)C)C(C)(C)C)C3)cc(-c3ccccc3)nc2c1 (mixture of isomers) [Compound 201, {1-[2-[1-(1-Benzyl-cyclopropanesulfonylaminocarbonyl)-spiro[2.2]pent-1-ylcarbamoyl]-4-(7-methoxy-2-phenyl-quinolin-4-yloxy)-pyrrolidine-1-carbonyl]-2,2-dimethyl-propyl}-carbamic acid tert-butyl ester] | 500 to 5000 | 5000 to 50000 |
| COc1ccc2c(O[C@@H]3C[C@@H](C(=O)NC4(C(=O)NS(=O)(=O)C5(CC6CC6)CC5)CC45CC5)N(C(=O)[C@@H](NC(=O)OC(C)(C)C)C(C)(C)C)C3)cc(-c3ccccc3)nc2c1 (mixture of isomers) [Compound 202, {1-[2-[1-(1-Cyclopropylmethyl-cyclopropanesulfonylaminocarbonyl)-spiro[2.2]pent-1-ylcarbamoyl]-4-(7-methoxy-2-phenyl-quinolin-4-yloxy)-pyrrolidine-1-carbonyl]-2,2-dimethyl-propyl}-carbamic acid tert-butyl ester] | 50 to 500 | 500 to 5000 |
| C=CC1C[C@]1(NC(=O)[C@@H]1C[C@@H](Oc2cc(-c3ccccc3)nc3cc(OC)ccc23)CN1C(=O)[C@@H](NC(=O)OC(C)(C)C)C(C)(C)C)C(=O)NS(=O)(=O)C1(C2=CCCCC2)CC1 (stereo in doubt) [Compound 3, {1-[2-[1-(1-Cyclohex-1-enyl-cyclopropanesulfonylaminocarbonyl)-2-vinylcyclopropylcarbamoyl]-4-(7-methoxy-2-phenyl-quinolin-4-yloxy)pyrrolidine-1-carbonyl]-2,2-dimethylpropyl}carbamic acid tert-butyl ester] | 50 to 500 | 50 to 500 |
| C=CC1C[C@]1(NC(=O)[C@@H]1C[C@@H](Oc2cc(-c3ccccc3)nc3cc(OC)ccc23)CN1C(=O)[C@@H](NC(=O)OC(C)(C)C)C(C)(C)C)C(=O)NS(=O)(=O)C1(C(=O)c2ccccc2)CC1 (stereo in doubt) [Compound 4, {1-[2-[1-(1-Benzoylcyclopropanesulfonyl-aminocarbonyl)-2-vinyl-cyclopropylcarbamoyl]-4-(7-methoxy-2-phenylquinolin-4-yloxy)-pyrrolidine-1-carbonyl]-2,2-dimethylpropyl}-carbamic acid tert-butyl ester] | 50 to 500 | 50 to 500 |
| C=CC1C[C@]1(NC(=O)[C@@H]1C[C@@H](Oc2cc(-c3ccccc3)nc3cc(OC)ccc23)CN1C(=O)[C@@H](NC(=O)OC(C)(C)C)C(C)(C)C)C(=O)NS(=O)(=O)C1(Cc2ccccc2)CC1 (stereo in doubt) [Compound 5, {1-[2-[1-(1-Benzylcyclopropanesulfonyl-aminocarbonyl)-2-vinyl-cyclopropylcarbamoyl]-4-(7-methoxy-2-phenylquinolin-4-yloxy)-pyrrolidine-1-carbonyl]-2,2-dimethylpropyl}-carbamic acid tert-butyl ester] | < 50 | < 50 |
| C=CC1C[C@]1(NC(=O)[C@@H]1C[C@@H](Oc2cc(-c3ccccc3)nc3cc(OC)ccc23)CN1C(=O)[C@@H](NC(=O)OC(C)(C)C)C(C)(C)C)C(=O)NS(=O)(=O)C1(C(=O)Nc2ccccc2)CC1 (stereo in doubt) [Compound 6, (1-{4-(7-Methoxy-2-phenyl-quinolin-4-yloxy)-2-[1-(1-phenylcarbamoyl-cyclopropane-sulfonylaminocarbonyl)-2-vinylcyclopropylcarbamoyl]-pyrrolidine-1-carbonyl}-2,2-dimethyl-propyl)carbamic acid tert-butyl ester] | < 50 | 50 to 500 |
| C=CC1C[C@]1(NC(=O)[C@@H]1C[C@@H](Oc2cc(-c3ccccc3)nc3cc(OC)ccc23)CN1C(=O)[C@@H](NC(=O)OC(C)(C)C)C(C)(C)C)C(=O)NS(=O)(=O)C1(C(=O)NCCC)CC1 (stereo in doubt) [Compound 9, (1-{4-(7-Methoxy-2-phenylquinolin-4-yloxy)-2-[1-(1-propylcarbamoyl-cyclopropanesulfonylaminocarbonyl)-2-vinylcyclopropylcarbamoyl]pyrrolidine-1-carbonyl}-2,2-dimethyl-propyl)carbamic acid tert-butyl ester] | < 50 | < 50 |
| COc1ccc2c(O[C@@H]3C[C@@H](C(=O)NC4(C(=O)NS(=O)(=O)C5(C(=O)c6ccccc6)CC5)CC4)N(C(=O)[C@@H](NC(=O)OC(C)(C)C)C(C)(C)C)C3)cc(-c3ccccc3)nc2c1 [Compound 73] | 500 to 5000 | – |
| C=C[C@@H]1C[C@]1(NC(=O)[C@@H]1C[C@@H](Oc2cc(-c3ccccc3)nc3cc(OC)ccc23)CN1C(=O)[C@@H](NC(=O)O[C@@H]1C[C@H](C)CC[C@H]1C(C)C)C(C)(C)C)C(=O)NS(=O)(=O)C1(Cc2ccccc2)CC1 [Compound 109] | 500 to 5000 | – |
| C=C[C@@H]1C[C@]1(NC(=O)[C@@H]1C[C@@H](Oc2cc(-c3ccccc3)nc3cc(OC)ccc23)CN1C(=O)[C@@H](NC(=O)[C@@H]1COc2ccccc2O1)C(C)(C)C)C(=O)NS(=O)(=O)C1(Cc2ccccc2)CC1 [Compound 113] | 500 to 5000 | – |
